In US6703205B2, “Apparatus and methods for correcting for variable velocity in microfluidic systems” (Caliper Technologies Corp., priority 1997, dated 2004):

How the values were obtained:
HCV protease = HCV protease (Hepatitis C virus genotype 1a, UniProt P27958); assay: On-chip continuous flow HCV protease assay with FRET depsipeptide substrate; assay type: biochemical; settings: 25 mM TRIS/HCL, pH 8.5, 0.1% Triton X-100, 10 mM DTT, 1M NDSB-195
Description: HCV protease was used in a similar fluorogenic assay to LAR phosphatase; however, the peptide substrate incorporates a fluorescence resonance energy transfer (FRET) label (FIG. 18). […] The product fluorescence is proportional to the amount of cleaved substrate. The height of the product signal is proportional to the rate of enzyme turnover for that substrate concentration. The rate of fluorescence generation can be assessed as the fluorescence signal per mixing time of substrate and enzyme in the reaction channel. That mixing time is determined by the mean residence time of the fluorescent product in the reaction channel as it is electrokinetically pumped from the source of the mixing to the detector. Km was determined from the Michaelis Menton equation.
Due to the chemistry of this FRET quenching reaction, several considerations for accurate measurement of Km on the Labchip™ exist. […]
The chip was operational in that fluid was flowing for more than 12 hours of continuous electrokinetic pumping; however, the inhibition response was reproducible for seven hours. The total reagent volume consumed in the experiment can be calculated from the cross sectional area of the capillary and the total current. […] The average percent inhibition response was calculated for the first three inhibited and uninhibited signals at the start of each hour. […]

LAR = LAR (Homo sapiens, UniProt P10586); assay: Cuvette / spectrophotometer LAR phosphatase assay with dFMUP; assay type: biochemical; settings: same running buffer
LAR, sequence (P10586 30-1907, species assumed): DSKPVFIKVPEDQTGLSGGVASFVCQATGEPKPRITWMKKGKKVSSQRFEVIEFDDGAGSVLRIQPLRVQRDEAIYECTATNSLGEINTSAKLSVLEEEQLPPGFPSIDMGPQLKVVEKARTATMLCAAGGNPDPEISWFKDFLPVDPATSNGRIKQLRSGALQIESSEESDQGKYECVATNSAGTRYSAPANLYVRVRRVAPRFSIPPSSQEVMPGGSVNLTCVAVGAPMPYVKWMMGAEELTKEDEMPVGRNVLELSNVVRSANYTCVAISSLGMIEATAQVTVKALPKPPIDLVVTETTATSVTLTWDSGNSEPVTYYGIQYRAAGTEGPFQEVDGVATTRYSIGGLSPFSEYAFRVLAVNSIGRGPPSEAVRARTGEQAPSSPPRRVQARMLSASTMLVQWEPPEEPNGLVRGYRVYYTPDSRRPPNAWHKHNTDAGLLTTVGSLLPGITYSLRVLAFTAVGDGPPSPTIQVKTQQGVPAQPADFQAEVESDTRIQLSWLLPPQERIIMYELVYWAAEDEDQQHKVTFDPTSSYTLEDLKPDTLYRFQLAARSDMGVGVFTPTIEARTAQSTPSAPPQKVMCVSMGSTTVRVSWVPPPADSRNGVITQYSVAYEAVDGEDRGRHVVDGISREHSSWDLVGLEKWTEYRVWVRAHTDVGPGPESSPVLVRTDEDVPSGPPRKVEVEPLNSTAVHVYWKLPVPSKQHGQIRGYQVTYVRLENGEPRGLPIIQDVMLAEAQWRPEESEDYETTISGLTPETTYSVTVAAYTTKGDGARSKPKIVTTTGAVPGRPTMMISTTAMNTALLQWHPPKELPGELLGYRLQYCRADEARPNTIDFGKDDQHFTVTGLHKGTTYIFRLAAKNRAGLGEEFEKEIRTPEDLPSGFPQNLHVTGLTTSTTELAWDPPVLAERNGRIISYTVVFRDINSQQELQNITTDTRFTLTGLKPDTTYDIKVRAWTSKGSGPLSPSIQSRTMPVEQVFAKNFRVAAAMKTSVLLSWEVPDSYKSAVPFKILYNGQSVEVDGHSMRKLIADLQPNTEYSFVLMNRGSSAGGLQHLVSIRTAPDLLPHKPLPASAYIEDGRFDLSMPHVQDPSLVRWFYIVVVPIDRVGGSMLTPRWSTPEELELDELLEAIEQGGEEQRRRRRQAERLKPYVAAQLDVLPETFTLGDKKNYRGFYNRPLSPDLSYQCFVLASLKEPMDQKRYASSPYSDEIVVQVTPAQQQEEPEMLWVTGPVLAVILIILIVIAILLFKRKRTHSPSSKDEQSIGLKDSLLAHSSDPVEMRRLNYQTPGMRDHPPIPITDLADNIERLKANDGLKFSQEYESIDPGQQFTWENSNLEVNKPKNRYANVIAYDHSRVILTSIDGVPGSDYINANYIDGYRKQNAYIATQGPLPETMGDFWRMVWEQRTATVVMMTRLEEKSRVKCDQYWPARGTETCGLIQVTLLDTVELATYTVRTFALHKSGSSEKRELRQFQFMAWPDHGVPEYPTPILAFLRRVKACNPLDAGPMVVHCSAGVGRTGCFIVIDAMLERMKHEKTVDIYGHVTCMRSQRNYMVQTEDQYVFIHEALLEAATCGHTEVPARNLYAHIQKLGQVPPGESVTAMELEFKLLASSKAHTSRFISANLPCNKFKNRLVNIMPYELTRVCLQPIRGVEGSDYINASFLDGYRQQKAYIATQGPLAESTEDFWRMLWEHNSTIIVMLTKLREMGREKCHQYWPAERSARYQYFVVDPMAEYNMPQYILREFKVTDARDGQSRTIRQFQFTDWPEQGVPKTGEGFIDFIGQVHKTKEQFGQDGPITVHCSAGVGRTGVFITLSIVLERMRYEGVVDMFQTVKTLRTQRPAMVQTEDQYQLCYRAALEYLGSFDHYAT
Method: A least squares fit of the three straight lines: no inhibitor, 35 μM and 69 μM peptide, was performed with the constraint that they meet at a common intercept on the y axis, 1/Vmax FIG. 15. […] The kcat is 4.74 μmol/min nmol LAR. The parallel analysis performed on the spectrophotometer in the same running buffer yielded a kcat of 6 μmol/min nmol LAR. […] The same analysis performed in a cuvette experiment with 1 mg/ml BSA in the running buffer gave 167 μM peptide.
In addition to the above kinetic studies, rate as a function of substrate concentration data was collected on three separate chips in order to consider interchip reproducibility for Km analyses. The combined data were used to prepare a double reciprocal plot. […] This is in excellent agreement with cuvette experiments performed on the spectrophotometer where dFMU was detected at 360 nm in a temperature controlled cuvette at 25_C.

HCV protease, sequence (P27958 1027-1208): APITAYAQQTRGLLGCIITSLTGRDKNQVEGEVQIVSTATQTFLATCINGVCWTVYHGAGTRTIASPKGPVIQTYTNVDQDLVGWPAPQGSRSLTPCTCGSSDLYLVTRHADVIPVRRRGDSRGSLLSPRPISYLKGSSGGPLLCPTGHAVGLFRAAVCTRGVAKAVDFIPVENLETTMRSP

Row | SMILES | Vmax (HCV protease) | kcat (HCV protease) | kcat (LAR)
1 | C/C=C1\NC(=O)[C@H]2CSSCC/C=C/[C@H](CC(=O)N[C@H](C(C)C)C(=O)N2)OC(=O)[C@H](C(C)C)NC1=O [Depsipeptide] | 0.086 mM/s | 0.03 s⁻¹ | –
2 | Cc1cc(=O)oc2c(F)c(OP(=O)(O)O)c(F)cc12 [dFMUP] | – | – | 6 μmol/min nmolLAR
